From patent publication US7582803B2 (Amgen Inc., priority 2005, dated 2009) come the findings set out here.

The structures appear in SMILES notation.

For this assay, the target named is T1, human GPR40 (Homo sapiens, UniProt O14842).
T1 construct: expressed in transfected cells; host or cells: CHO cells
T1 sequence (O14842 whole entry): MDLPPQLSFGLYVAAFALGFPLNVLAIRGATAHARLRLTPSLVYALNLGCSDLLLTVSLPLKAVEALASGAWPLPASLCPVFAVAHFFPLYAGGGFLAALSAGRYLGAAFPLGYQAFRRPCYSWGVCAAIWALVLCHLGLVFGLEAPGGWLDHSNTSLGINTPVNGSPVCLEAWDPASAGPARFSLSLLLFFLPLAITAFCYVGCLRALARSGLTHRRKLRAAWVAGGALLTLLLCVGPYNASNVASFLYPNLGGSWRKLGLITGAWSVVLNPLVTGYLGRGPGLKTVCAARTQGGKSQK
As to the kind of experiment: Cell-based aequorin assay. The note with it: CHO cells stably transfected with GPR40 and aequorin; 0.01% HSA; aequorin luminescence; read-out: Relative EC50. Here is the method: Cell-based aequorin assays were employed to characterize the modulatory activity of compounds on the GPR40 signaling pathway. In an exemplary assay, CHO cells were stably transfected with both GPR40 and Aequorin (Euroscreen). Cells were detached from the tissue culture dish with 2 mL of trypsin (0.25% (w/v)). Trypsinization was halted with 28 mL of Hanks Buffered Salt Solution containing 20 mM Hepes (H/HBSS) and 0.01% fatty acid-free human serum albumin (HSA). Coelantrazine is added to 1 ug/mL, and the cells were incubated for 2 hours at room temperature. Compounds were dissolved in DMSO for preparation of 10 mM stock solutions. Compounds were diluted in H/HBSS containing 0.01% HSA. Serial dilutions of the test compounds were prepared to determine dose response.
Aequorin luminescence measurements were made using an EG&G Berthold 96-well luminometer, and the response was measured over a 20 second interval after cells and compounds were mixed. The maximum relative light units was plotted to determine dose response. The EC50 (effective concentration to reach 50% maximal response) was determined from the dose response plot.
Table 1 presents representative data (EC50 values) obtained for exemplary compounds of the invention for the relative activation of human GPR40. […]
For the compound `O=C(O)CC(c1ccc(OC2Cc3ccccc3C2)cc1)c1cccs1` (racemic) [Example 48, (+/−)-3-(4-(2,3-Dihydro-1H-inden-2-yloxy)phenyl)-3-(thiophen-2-yl)propanoic acid], the EC50 (commonly the concentration that produces a half-maximal response) is 100 to 1000 nM.

In the case of `CCC1(CC)CCC(C)(C)c2ccc(COc3ccc([C@H](CC(=O)O)c4nccn4C)cc3)cc21` [Example 88, (S)-3-(4-((8,8-Diethyl-5,5-dimethyl-5,6,7,8-tetrahydronaphthalen-2-yl)methoxy)phenyl)-3-(1-methyl-1H-imidazol-2-yl)propanoic acid], the EC50 lay within 100 to 1000 nM.

On to `Cn1nnnc1[C@@H](CC(=O)O)c1ccc(OCc2ccc3c(c2)C(C)(C)CCC3(C)C)cc1` [Example 81, (S)-3-(1-Methyl-1H-tetrazol-5-yl)-3-[4-(5,5,8,8-tetramethyl-5,6,7,8-tetrahydro-naphthalen-2-ylmethoxy)-phenyl]-propionic acid], for which the EC50 fell in the range of 10 to 100 nM.

Regarding `Cc1cnc(C(CC(=O)O)c2ccc(OC3Cc4ccccc4C3)cc2)o1` (stereo not drawn) [Example 51, 3-(4-(2,3-Dihydro-1H-inden-2-yloxy)phenyl)-3-(5-methyloxazol-2-yl)propanoic acid], the EC50 is 100 to 1000 nM.

Take `CC1(C)CCC(C)(C)c2cc(COc3ccc([C@@H](CC(=O)O)c4ccon4)cc3)ccc21` [Example 77, (R)-3-(Isoxazol-3-yl)-3-(4-((5,5,8,8-tetramethyl-5,6,7,8-tetrahydronaphthalen-2-yl)methoxy)phenyl)propanoic acid]: the EC50 was in the range of 1000 to 10000 nM.

On to `COc1ccc(F)c(-c2ccc3c(c2)CCC3Oc2ccc([C@H](C=C(C)C)CC(=O)O)cc2)c1` (stereo partly drawn) [Example 56], for which the EC50 fell in the range of 1000 to 10000 nM.

As to `CC1(C)CCC(C)(C)c2cc(COc3ccc([C@H](CC(=O)O)c4ncco4)cc3)ccc21` [Example 82, (S)-3-Oxazol-2-yl-3-[4-(5,5,8,8-tetramethyl-5,6,7,8-tetrahydro-naphthalen-2-ylmethoxy)-phenyl]-propionic acid], the EC50 was in the range of 10 to 100 nM.

Take `CC#C[C@@H](CC(=O)O)c1ccc(OC2CCc3cc(Br)ccc32)cc1` (stereo partly drawn) [Example 2, (3S)-3-[4-(5-Bromo-indan-1-yloxy)-phenyl]-hex-4-ynoic acid]: the EC50 lay within 10 to 100 nM.

Consider `Cn1ccnc1[C@@H](CC(=O)O)c1ccc(OCc2ccc3c(c2)CCCC3)cc1` [Example 80, (S)-3-(i-Methyl-1H-imidazol-2-yl)-3-[4-(5,6,7,8-tetrahydro-naphthalen-2-ylmethoxy)-phenyl]-propionic acid], for which the EC50 was in the range of 100 to 1000 nM.

Consider `Cn1ncnc1[C@@H](CC(=O)O)c1ccc(OCc2ccc3c(c2)C(C)(C)CCC3(C)C)cc1` [Example 72, (S)-3-(2-Methyl-2H-[1,2,4]triazol-3-yl)-3-[4-(5,5,8,8-tetramethyl-5,6,7,8-tetrahydro-naphthalen-2-ylmethoxy)-phenyl]-propionic acid], for which the EC50 was in the range of 100 to 1000 nM.

`O=C(O)CC(c1ccc(F)cc1)c1ccc(OC2CCc3cc(Br)ccc32)cc1` (racemic) [Example 42, (+/−)-3-[4-(5-Bromo-indan-1-yloxy)-phenyl]-3-(4-fluoro-phenyl)-propionic acid]: the EC50 lay within 100 to 1000 nM.

With `CC#C[C@H](CC(=O)O)c1ccc(OC2CCc3cc(-c4ccccc4OCC)ccc32)cc1` (stereo partly drawn) [Example 65, (3R)-3-(4-(5-(2-Ethoxyphenyl)-2,3-dihydro-1H-inden-1-yloxy)phenyl)hex-4-ynoic acid], the EC50 was above 10000 nM.

Take `CC#C[C@H](CC(=O)O)c1ccc(OC2CCc3cc(-c4c(C)cc(C)cc4C)ccc32)cc1` (stereo partly drawn) [Example 64, (3R)-3-(4-(5-Mesityl-2,3-dihydro-1H-inden-1-yloxy)phenyl)hex-4-ynoic acid]: the EC50 was above 10000 nM.

As to `O=C(O)CC(c1ccc(OC2Cc3ccccc3C2)cc1)c1ccc(F)cc1F` (racemic) [Example 38, (+/−)3-(2,4-Difluorophenyl)-3-(4-(2,3-dihydro-1H-inden-2-yloxy)phenyl)propanoic acid], the EC50 is 100 to 1000 nM.

In the case of `CC#C[C@@H](CC(=O)O)c1ccc(OC2CCc3cc(F)ccc32)cc1` (stereo partly drawn) [Example 14, (3S)-3-(4-(5-Fluoro-2,3-dihydro-1H-inden-1-yloxy)phenyl)hex-4-ynoic acid], the EC50 lay within 10 to 100 nM.

With `CC#C[C@H](CC(=O)O)c1ccc(OC2CCc3cc(-c4cccc(OCC)c4)ccc32)cc1` (stereo partly drawn) [Example 59, (3R)-3-(4-(5-(3-Ethoxyphenyl)-2,3-dihydro-1H-inden-1-yloxy)phenyl)hex-4-ynoic acid], the EC50 was above 10000 nM.

Turning to `CC#C[C@@H](CC(=O)O)c1ccc(OC2CCc3ccccc3C2)cc1` (stereo partly drawn) [Example 26, (3S)-3-[4-(1,2,3,4-Tetrahydro-naphthalen-2-yloxy)-phenyl]-hex-4-ynoic acid], the EC50 was 100 to 1000 nM.

As for `CC#C[C@@H](CC(=O)O)c1ccc(OC2CCc3cc(OC)ccc32)cc1` (stereo partly drawn) [Example 18, (3S)-3-[4-(5-Methoxy-indan-1-yloxy)-phenyl]-hex-4-ynoic acid], the EC50 was 10 to 100 nM.

`CC#C[C@H](CC(=O)O)c1ccc(OC2CCc3cc(-c4cccc(OC(F)(F)F)c4)ccc32)cc1` (stereo partly drawn) [Example 63, (3R)-3-(4-(5-(3-(trifluoromethoxy)phenyl)-2,3-dihydro-1H-inden-1-yloxy)phenyl)hex-4-ynoic acid]: the EC50 was above 10000 nM.

With `CC1(C)CCC(C)(C)c2cc(COc3ccc(C(CC(=O)O)c4cncnc4)cc3)ccc21` (racemic) [Example 79, (R/S)-3-Pyrimidin-5-yl-3-[4-(5,5,8,8-tetramethyl-5,6,7,8-tetrahydro-naphthalen-2-ylmethoxy)-phenyl]-propionic acid], the EC50 lay within 1000 to 10000 nM.

Take `CC#C[C@@H](CC(=O)O)c1ccc(OC2CCCc3c(Br)cccc32)cc1` (stereo partly drawn) [Example 25, (3S)-3-[4-(5-Bromo-1,2,3,4-tetrahydro-naphthalen-1-yloxy)-phenyl]-hex-4-ynoic acid]: the EC50 is 10 to 100 nM.

In the case of `CC#C[C@@H](CC(=O)O)c1ccc(OC2CCCc3ccccc32)cc1` (stereo partly drawn) [Example 24, (3S)-3-[4-(1,2,3,4-Tetrahydro-naphthalen-1-yloxy)-phenyl]-hex-4-ynoic acid], the EC50 fell in the range of 10 to 100 nM.

As for `CC#C[C@@H](CC(=O)O)c1ccc(OC2CCc3ccccc32)cc1` (stereo partly drawn) [Example 46, (3S)-3-(4-(2,3-Dihydro-1H-inden-1-yloxy)phenyl)hex-4-ynoic acid], the EC50 is 10 to 100 nM.

Turning to `CC#C[C@@H](CC(=O)O)c1ccc(OC2Cc3ccccc3C2)cc1` [Example 27, (3S)-3-[4-(Indan-2-yloxy)-phenyl]-hex-4-ynoic acid], the EC50 is 10 to 100 nM.

As to `CC#CC(CC(=O)O)c1ccc(OC2CCC(c3ccccc3)CC2)cc1` [Example 29, (R,S)-3-(4-(4-phenylcyclohexyloxy)phenyl)hex-4-ynoic acid], the EC50 is 100 to 1000 nM.

With `CC#C[C@H](CC(=O)O)c1ccc(OC2CCc3cc(-c4cccc(OC)c4OC)ccc32)cc1` (stereo partly drawn) [Example 61, (3R)-3-(4-(5-(2,3-Dimethoxyphenyl)-2,3-dihydro-1H-inden-1-yloxy)phenyl)hex-4-ynoic acid], the EC50 is above 10000 nM.

Turning to `CC1(C)CCC(C)(C)c2cc(COc3ccc(C(CC(=O)O)C4=NOCC4)cc3)ccc21` (stereo not drawn) [Example 85, 3-(4,5-Dihydroisoxazol-3-yl)-3-(4-((5,5,8,8-tetramethyl-5,6,7,8-tetrahydronaphthalen-2-yl)methoxy)phenyl)propanoic acid], the EC50 fell in the range of 100 to 1000 nM.
